Broadly, the melting point is the temperature of the solid-liquid transition. Compound `Cn1cc(C=O)c(-c2ccc([N+](=O)[O-])cc2)n1` yielded a melting point of 175 to 177 °C. On to `Cc1ccccc1-n1c(S)nc2sc3c(c2c1=O)CCC(C)C3` (centres undefined), for which the melting point is 230 to 232 °C. On to `O=C(O)c1ccc2c(c1)CCC2`, for which the melting point was 173 to 175 °C. To `Cc1cc(N)n(-c2ccccn2)n1` belongs 102 to 104 °C. Next, `CC(C)C(=O)Nc1cccc(F)c1C(=O)O`: 128 to 130 °C; `O=C(O)c1cc(Cl)cc([N+](=O)[O-])c1`: 146 to 148 °C; `COC(=O)c1ccc([N+](=O)[O-])cc1N`: 156 to 158 °C.

`O=C(Nc1cccc(C(=O)O)c1)NC1CC1` yielded a melting point of 236 to 238 °C.

For `COc1ccc(S(=O)(=O)Cl)cc1C1(C)NC(=O)NC1=O` (centres undefined), the melting point fell in the range of 214 to 216 °C. Compound `Nc1ccc([N+](=O)[O-])c(Br)c1` had a melting point of 169 to 171 °C. On to `O=C1Nc2c(Br)cc(F)cc2C1=O`, for which the melting point fell in the range of 215 to 217 °C. To `O=C1C=CC(=O)N1CCc1ccccc1F` belongs 106 to 108 °C.

The compound `CC(C)(C)CNc1ccc(C(N)=O)c(Cl)c1` registered a melting point of 138 to 140 °C. Compound `CCc1ccc(-c2nn(-c3ccccc3)cc2C(=O)O)cc1` gave a melting point of 208 to 210 °C. `Cc1ccc(CCC(=O)NCC(=O)O)cc1` showed a melting point of 118 to 120 °C. As to `CCOc1ccc(Nc2nnc(S)s2)cc1`, the melting point fell in the range of 170 to 172 °C.

As to `N#CCc1cnn(-c2ccccc2)c1`, the melting point is 38 to 40 °C. For the compound `O=C(Nc1cc(F)ccc1C(=O)O)c1cccc(Br)c1`, the melting point fell in the range of 217 to 219 °C. To `Cc1csc(-c2ccc(C(=O)O)cc2)n1` belongs 208 to 210 °C; to `Cc1nn2cccnc2c1C(=O)O`, 176 to 178 °C; to `Clc1ccc(-c2nnc(CNC3CC3)o2)cc1`, 104 to 106 °C. `CN(C)S(=O)(=O)c1ccc(Cl)c([N+](=O)[O-])c1` yielded a melting point of 104 to 106 °C. In the case of `Sc1nnc(-c2ccncc2)n1C1CC1`, the melting point lay within 303 to 305 °C. `Nc1nc(-c2cccc(C(F)(F)F)c2)n[nH]1` displayed a melting point of 221 to 223 °C. The compound `CCOC(=O)c1nc(C)n[nH]1` registered a melting point of 184 to 186 °C. Next, `CCNC(=O)c1ccc(C)c(N)c1`: 74 to 76 °C.

`Nc1ccn(CC(=O)N2CCOCC2)n1` returned a melting point of 168 to 170 °C. Take `O=C(CCl)Nc1ccc(OC(F)(F)F)cc1`: the melting point lay within 71 to 74 °C. To `Clc1ccc(C(Cl)c2ccc(Cl)cc2)cc1` belongs 57 to 59 °C; to `O=C1c2ccc([N+](=O)[O-])cc2C(=O)N1c1ccc(F)cc1`, 207 to 209 °C; to `CC(C)(C)NC(=O)Cc1ccc(N)cc1`, 113 to 115 °C. Take `Fc1ccc(NC(=NC2CC2)c2ccccc2)cc1`: the melting point is 92 to 94 °C. To `Cc1nn(-c2ccc(Cl)cc2Cl)c(C)c1CC(=O)O` belongs 186 to 188 °C. Next, `CN(C1CCCCC1)S(=O)(=O)c1ccc(C(=O)O)cc1`: 213 to 215 °C; `CC(NC(=O)CCl)C1CC2CCC1C2` (centres undefined): 87 to 89 °C. To `CC(NS(=O)(=O)c1ccc(N)cc1)C1CC2CCC1C2` (centres undefined) belongs 202 to 204 °C; to `Cc1cc(C)c2nc(C3CC3)cc(C(=O)O)c2c1`, 207 to 209 °C; to `CCC(=O)NCC(=O)O`, 121 to 123 °C. For `O=C(Nc1nnc(C2CCCCC2)s1)OCC(F)(F)F`, the melting point is 182 to 184 °C. Next, `CC(C)c1nnc(NC(=O)OCC(F)(F)F)s1`: 189 to 191 °C; `OC1CNCC1N1CCCC1` (centres undefined): 82 to 84 °C. Next, `O=C(O)CN1CCCC1CO` (centres undefined): 146 to 148 °C; `ClCc1cnn(-c2ccccc2)c1`: 65 to 69 °C. `CC(C)(C)OC(=O)NCCC(=O)NN` gave a melting point of 104 to 106 °C. Next, `O=C(O)c1cnc2ccsc2c1`: 259 to 261 °C; `Cc1cc(C)n(-c2cncc(Cl)n2)n1`: 88 to 90 °C; `O=C(O)c1cc(NS(=O)(=O)c2cc([N+](=O)[O-])ccc2Cl)ccc1O`: 43 to 45 °C.

For the compound `NCc1ccccc1CN1CCC(O)CC1`, the melting point is 83 to 85 °C. The compound `Cc1ccc(-c2nc(-c3ccccc3)sc2CC(=O)O)cc1` registered a melting point of 165 to 167 °C. Next, `O=C1CC(c2ccccc2)NCCN1` (centres undefined): 102 to 104 °C; `N#CCCCn1cc(C(=O)O)nn1`: 164 to 166 °C; `Nc1ncccc1OCc1cccc(Cl)c1`: 84 to 86 °C. Compound `O=c1[nH]c(-c2cccc(Br)c2)no1` gave a melting point of 198 to 200 °C.

As for `Cc1ncc(C(=O)O)c(=O)[nH]1`, the melting point is 310 to 312 °C. To `CC(C)(C)OC(=O)Nc1cocn1` belongs 108 to 110 °C; to `O=C(O)c1ccccc1NCCO`, 142 to 144 °C; to `CCNS(=O)(=O)c1ccc(F)c(C(=O)O)c1`, 154 to 156 °C. Next, `O=C1OCc2ccc(S(=O)(=O)Cl)cc21`: 104 to 106 °C. As for `Cc1cccc(-n2nnnc2S)c1C`, the melting point fell in the range of 115 to 117 °C. To `N#Cc1cccc(Oc2ccc(N)cn2)c1` belongs 104 to 106 °C; to `O=C(O)c1cnc(C2CC2)s1`, 187 to 189 °C; to `NC(=O)c1ccc(Oc2ccc(C(=O)O)cc2)cc1`, 289 to 291 °C. Regarding `Cn1cc(S(=O)(=O)Cl)c([N+](=O)[O-])n1`, the melting point lay in the range of 70 to 72 °C. For the compound `Nc1nc(Br)ccc1O`, the melting point fell in the range of 153 to 155 °C. To `CCc1c(C)sc(N)c1C#N` belongs 103 to 105 °C; to `Fc1cccc(Nc2nnc(S)s2)c1`, 206 to 208 °C. Regarding `O=C1Nc2c(cc(F)cc2[N+](=O)[O-])C1=O`, the melting point lay in the range of 176 to 178 °C. `Nc1ccccc1-c1ncc[nH]1`: the melting point fell in the range of 132 to 134 °C. In the case of `O=C(O)c1ccccc1C(=O)N1CCCC1`, the melting point was in the range of 131 to 133 °C. Next, `NC(CN1CCCC1=O)c1cccc(C(F)(F)F)c1` (centres undefined): 76 to 78 °C; `CC1NCCn2c(Cl)ccc21` (centres undefined): 53 to 55 °C. In turn, `Cc1cccc(NS(=O)(=O)c2ccc(N)cc2)n1` registered a melting point of 223 to 225 °C. As to `NS(=O)(=O)NCC1CCCNC1` (centres undefined), the melting point was in the range of 132 to 134 °C. Next, `O=C(COc1ccc2c(c1)CCC2)c1ccc(Cl)c(Cl)c1`: 89 to 91 °C. Next, `CC1(c2cccc(C(F)(F)F)c2)NC(=O)NC1=O` (centres undefined): 219 to 221 °C; `O=C(CCl)N(c1ccccc1)C1CCS(=O)(=O)C1` (centres undefined): 208 to 210 °C; `O=C(CCl)N1N=C(c2ccco2)CC1c1cccs1` (centres undefined): 153 to 155 °C. Regarding `Cn1cc(C#N)cc1C(=O)O`, the melting point lay within 239 to 241 °C. `Cc1cccc(-c2nn(-c3ccc(F)cc3)cc2C(=O)O)c1` registered a melting point of 168 to 170 °C. To `CCOC(=O)c1c(C)nn(C)c1N` belongs 101 to 103 °C; to `ClCc1cn(-c2ccccc2)nc1-c1ccccc1`, 87 to 89 °C; to `CN1CCc2ccc(N)cc2C1=O`, 127 to 129 °C.

As for `Cn1c(=O)[nH]c(=O)c2cc(C(=O)O)cnc21`, the melting point was in the range of 316 to 318 °C. To `CC1Oc2ncccc2NC1=O` (centres undefined) belongs 225 to 227 °C.

The record behind these values is a melting point compilation (Tetko et al.).
